We go through six molecules from US4221782A (priority 1978, dated 1980).

One series deals with threespine stickleback. Set-up: species or system Gasterosteus aculeatus. Conditions: in vivo.
In series [1] the test system is stickleback. Kind of series: Exploratory test with azidotrimethylsilicane. The format is in vivo. The following applies: relative to other azides.
The next series relates to sockeye salmon. As to the method:
Fingerling sockeye salmon in artesian water were exposed to a concentration of 5 mg/l of potassium azide for 24 hours at a temperature of 15 degrees Celsius.
Ten sockeye (length range, 55-93 mm) were assigned to each of four aquaria (load, 2.7 g/l) and concentrations of chemicals were added as indicated in Table 8. The time of mortality was noted.

Series [2] concerns stickleback.
Description: For water with different chemistry and for application of different concentrations of the azide the delay time of application of deactivator could vary.
Series [3] deals with threespine stickleback and sockeye salmon. The following applies: increases in temperature. How it is done:
Delineation bioassays determined primarily the LC50 and LC100 of stickleback and the LC0 and LC50 of salmonids.
Stickleback (mean length, 44 mm) and sockeye (mean length, 74 mm) in artesian well water were treated with various concentrations of potassium azide in laboratory facilities for 96 hours at 5, 10 and 15 degrees Celsius to determine approximate selectivity and safety indices.

Series [4] relates to stickleback. As to the method:
For field applications the concentration of NaN3 or N3 -- would vary with water quality--mainly with regard to dissolved solid and hydrogen ion concentrations. […] For the treatment of rivers and shorelines of lakes the concentrations of azide that would be used would be those that would kill stickleback in 12 to 24 hours.
The source holds these as a separate data set.

The test system of the next series is chinook salmon. The experiment in a line: Example 4: LC0 of chinook, artesian well water, 96-hour bioassays. Type of series: in vivo, O. tschawytscha. The following applies: for LC0 of chinook: artesian well water, 96-hour. The text has this: The desirable fishes tested in bioassays included the sockeye salmon (Oncorhynchus nerka), chinook salmon, (O. tschawytscha) and the steelhead, a sea-run variety of rainbow trout (Salmo gairdneri).

Series [5] in a line: Example 5: survival/recovery of sockeye after exposure to sodium azide, 20-day bioassays. The format is in vivo, Oncorhynchus nerka. Conditions: sockeye salmon, in vivo; exposed for 16 hours or less; end of 20-day bioassays. From the text:
(§1) Stickleback subjected to the same test conditions experienced almost 100% mortality.

Series [6] relates to sockeye. The series is described as above. The following applies: exposed for 16 hours or less. Type of series: in vivo, Oncorhynchus nerka.
Description: as §1

Series [7] has as its system rats. The experiment in a line: Lowest published lethal oral dose in rats (1974 Toxic Substances List). The format is in vivo, rat. Conditions: water treated at 1 mg/l of azide. As to the method:
It would be impossible for a bird or mammal to drink enough water when treated at 1 mg/l of azide for the azide to harm the animal. To drink a lethal dose, an animal would have to drink 46 times its weight in water. Nevertheless safety precautions should be taken when handling the chemical.

Series [8] relates to freshwater races of rainbow trout. The experiment in a line: Toxicity to rainbow trout, 96-hour bioassays. The format is in vivo, Salmo gairdneri.
Another series has as its system cutthroat trout. The experiment in a line: Toxicity to cutthroat trout, 96-hour bioassays. Type of series: in vivo, Salmo clarki.
The test system of a further series is bridgelip sucker. The experiment in a line: Toxicity to bridgelip sucker, 96-hour bioassays. Type of series: in vivo, Catastomus columbianus.
The test system of another series is speckled dace. Kind of series: Toxicity to speckled dace, 96-hour bioassays. Type of series: in vivo, Rhinichthys cataractae.
Another series relates to redside shiner. Kind of series: Toxicity to redside shiner, 96-hour bioassays. The format is in vivo, Richardsonius balteatus.
The test system of another series is torrent sculpin. The experiment in a line: Toxicity to torrent sculpin, 96-hour bioassays. The format is in vivo, Cottus rotheus.
The subject of series [9] is sockeye. Conditions: in vivo.
The test system of series [10] is rats. Conditions: cited from earlier work.
Where [11] appears, read: up to 5.0 mg/l in artesian well water.

Where two headings read alike, the source gives them in different places.

`[Ca+2].[I-].[I-]` [calcium iodide]: in the series on threespine stickleback, the azide neutralizing effectiveness entry is on record as “neutralized azide more effectively than calcium chloride”; the “toxicity of azide in standing water and duration of its potency” value (shortened to “toxicity of azide”) is on record as “can be controlled”.

For the molecule `C[Si](C)(C)N=[N+]=[N-]` [azidotrimethylsilicane], the “biological activity/potency and selectivity of the azide radical in organic compounds” value with stickleback [1] is “equally biologically active or potent and equally selective”.

calcium chloride: the “toxicity of azide” value with threespine stickleback is “can be controlled”. In addition, the Survival time with sockeye salmon (3.5 mg/l calcium chloride (1 equivalent weight) after 24 h at 5 mg/l potassium azide) was 90 h; in the series with sockeye salmon (7.0 mg/l calcium chloride (2 equivalent weights) after 24 h at 5 mg/l potassium azide), 112 h; in the series with sockeye salmon (14.0 mg/l calcium chloride (4 equivalent weights) after 24 h at 5 mg/l potassium azide), 148 h; in the series with sockeye salmon ([…] calcium chloride (8 equivalent weights) after 24 h at 5 mg/l potassium azide) it was “Did not die”. Besides, the “effect on mortality of sockeye exposed to 5 mg/l potassium azide for 24 hours” value in the series with sockeye salmon (1, 2, 4, and 8 equivalent weights) is “delayed the mortality”. Further, the “survival of all sockeye in the azide” value in the series on sockeye salmon (8 equivalents of calcium chloride) is “complete survival of all sockeye”. For the same molecule, the “delay in application of calcium chloride necessary for maximizing the kill of stickleback” value in the series with stickleback [2] (5 mg/l potassium azide, artesian water) came out at 2 h. In addition, in the series on stickleback [2] (calcium chloride and potassium azide added about simultaneously), the “death time for stickleback” value is given as “about doubled”.

Turning to potassium azide, in series [3], the “effect of temperature on toxicity” value was “marked increase in the toxicity”.

On to `[Cl][Sn][Cl]` [stannous chloride], for which the “toxicity of azide” value in the series with threespine stickleback is recorded as “can be controlled”.

As to `[N-]=[N+]=[N-]` [sodium azide], the “toxicity to fish in river water as opposed to artesian water” value in the series on stickleback [4] (allowing for the 0.8 differential between sodium and potassium azide) is recorded as “about 5 times”. For the same molecule, the LC100 of stickleback with stickleback [4] (river water, 96-hour bioassays, 15 degrees Celsius) is 0.34 mg/L. Further, the “LC0 of chinook salmon compared with sockeye and steelhead” value in the series with chinook salmon (allowing for the 0.8 differential) is “substantially greater than that of sockeye and steelhead”. In addition, the LC0 of chinook came to 10.0 mg/L with chinook salmon (5° C.), 8.0 mg/L in the series with chinook salmon (10° C.) and 8.0 mg/L in the series on chinook salmon (15° C.). The molecule further registered a survival at 480 h in series [5] of 100%. Moreover, the “recovery of sockeye from ill effects” value in the series with sockeye [6] was “complete recovered from any ill effects”. Further, in the series on rats [7], the “amount of water to drink for a lethal dose” value is on record as 46 times its weight. Moreover, the toxicity result (in series [8] (up to 1.5 mg/l in river water); in series [8] (setting [11]); in the series with cutthroat trout (up to 1.5 mg/l in river water); with cutthroat trout (setting [11]); in the series with bridgelip sucker (up to 1.5 mg/l in river water); with bridgelip sucker (setting [11])) was “not toxic” in each case. Moreover, the toxicity entry with speckled dace (up to 1.5 mg/l in river water), with speckled dace (setting [11]), in the series with redside shiner (up to 1.5 mg/l in river water), in the series with redside shiner (setting [11]), in the series on torrent sculpin (up to 1.5 mg/l in river water) and in the series on torrent sculpin (setting [11]) was “not toxic” in each case. For the same molecule, in the series with sockeye [9], the “mean times of death at about equal equivalents” value was “about equal mean times of death”. Besides, the “LDL0, oral (lowest published lethal dose)” value with rats [10] is 46 mg for 2 kg of rat.
